In the CheMixHub drug solubility set:

Test: xn = mol fraction of the nth substance listed, in the solute-free solvent

O=C1CCC(C(=O)N2CSCC2C(=O)O)N1 (stereo not drawn) + CO + CC(C)=O
solubility (g/100 g solution)
Details	278.15 K	283.15 K	288.15 K	293.15 K	298.15 K	303.15 K	308.15 K	313.15 K	318.15 K	323.15 K
x2 = 0.1676	0.03	0.0418	0.06	0.08	0.115	0.159	0.227	0.34	0.497	0.708
x2 = 0.3118	0.045	0.0699	0.101	0.147	0.241	0.346	0.532	0.773	1.12	1.54
x2 = 0.4372	0.0669	0.0956	0.145	0.224	0.317	0.432	0.62	–	1.24	1.72
x2 = 0.5471	0.74	0.834	0.94	1.08	1.19	1.33	1.48	1.67	1.88	2.12
x2 = 0.6444	0.813	0.929	1.04	1.2	1.37	1.58	1.81	2.07	2.37	2.73
x2 = 0.7311	0.964	1.09	1.21	1.38	1.56	1.76	1.99	2.24	2.54	2.94
x2 = 0.8087	1.07	1.14	1.29	1.48	1.69	1.92	2.19	2.49	2.82	3.21
x2 = 0.8788	1.02	1.15	1.28	1.48	1.69	1.92	2.18	2.49	2.81	3.18
x2 = 0.9422	0.998	1.13	1.25	1.42	1.64	1.87	2.14	2.43	2.77	3.13

O=C1CCC(C(=O)N2CSCC2C(=O)O)N1 (stereo not drawn) + CO + CCCCOC(C)=O
solubility (g/100 g solution)
Details	278.15 K	283.15 K	288.15 K	293.15 K	298.15 K	303.15 K	308.15 K	313.15 K	318.15 K	323.15 K
x2 = 0.2871	0.0109	0.0159	0.0239	0.0358	0.0528	0.0759	0.105	0.152	0.213	0.292
x2 = 0.4754	0.017	0.025	0.0349	0.0468	0.0628	0.0977	0.147	0.219	0.325	0.472
x2 = 0.6084	0.0271	0.0398	0.0597	0.0838	0.122	0.155	0.227	0.342	0.501	0.724
x2 = 0.7073	0.0401	0.065	0.104	0.162	0.249	0.378	0.564	0.832	1.2	1.68
x2 = 0.7838	0.0447	0.0729	0.117	0.184	0.287	0.432	0.65	0.964	1.4	1.95
x2 = 0.8446	0.0601	0.0995	0.148	0.234	0.363	0.542	0.949	1.23	1.59	2.33
x2 = 0.8943	0.635	0.752	0.898	0.997	1.19	1.36	1.59	1.88	2.15	2.57
x2 = 0.9355	0.674	0.824	0.969	1.11	1.26	1.5	1.8	2.04	2.4	2.85
x2 = 0.9703	0.793	0.937	1.12	1.28	1.52	1.75	2.06	2.36	2.82	3.31

Cc1ccc2cc(Br)ccc2n1 + CO + O
solubility (g/100 g solution)
Details	278.15 K	283.15 K	288.15 K	293.15 K	298.15 K	303.15 K	308.15 K	313.15 K	318.15 K	323.15 K
x2 = 0.05881	0.0126	0.0148	0.0176	0.0206	0.0242	0.0281	0.0331	0.0386	0.045	0.0524
x2 = 0.1233	0.0194	0.0228	0.0268	0.0314	0.0369	0.0428	0.0502	0.0586	0.0682	0.0793
x2 = 0.1942	0.0298	0.0349	0.0409	0.0477	0.056	0.0651	0.0761	0.0886	0.103	0.12
x2 = 0.2727	0.0444	0.052	0.0607	0.0706	0.0828	0.0963	0.112	0.131	0.152	0.177
x2 = 0.3599	0.0588	0.0705	0.0835	0.0981	0.115	0.135	0.156	0.18	0.21	0.245
x2 = 0.4576	0.0792	0.095	0.112	0.133	0.155	0.18	0.21	0.245	0.283	0.331
x2 = 0.5675	0.097	0.117	0.14	0.166	0.195	0.228	0.266	0.311	0.361	0.421
x2 = 0.6923	0.118	0.142	0.169	0.199	0.233	0.272	0.318	0.374	0.436	0.511
x2 = 0.835	0.133	0.159	0.19	0.227	0.27	0.317	0.368	0.429	0.504	0.593

Nc1cccc2ccncc12 + CO + O
solubility (g/100 g solution)
Details	278.15 K	283.15 K	288.15 K	293.15 K	298.15 K	303.15 K	308.15 K	313.15 K	318.15 K	323.15 K
x2 = 0.05881	0.0271	0.0315	0.0363	0.0431	0.0495	0.0576	0.0677	0.079	0.0916	0.107
x2 = 0.1233	0.0301	0.035	0.0406	0.0481	0.0556	0.0648	0.0763	0.0893	0.104	0.122
x2 = 0.1942	0.0368	0.0428	0.0497	0.0588	0.0681	0.0794	0.0937	0.11	0.128	0.15
x2 = 0.2727	0.0479	0.0557	0.0648	0.0762	0.0886	0.103	0.122	0.142	0.167	0.196
x2 = 0.3599	0.0644	0.0748	0.087	0.102	0.119	0.138	0.163	0.19	0.223	0.262
x2 = 0.4576	0.0845	0.0982	0.115	0.134	0.157	0.183	0.216	0.252	0.296	0.349
x2 = 0.5675	0.111	0.128	0.15	0.175	0.205	0.238	0.282	0.329	0.387	0.455
x2 = 0.6923	0.131	0.153	0.179	0.209	0.248	0.289	0.343	0.4	0.473	0.559
x2 = 0.835	0.144	0.167	0.201	0.239	0.286	0.34	0.399	0.461	0.542	0.644

NCCS(=O)(=O)O + O + CC#N
solubility (g/100 g solution)
Details	298.15 K	303.15 K	308.15 K	313.15 K	318.15 K
x2 = 0.6949	0.528	0.562	0.597	0.644	0.864
x2 = 0.7736	1.15	1.28	1.37	1.54	1.75
x2 = 0.8417	2.09	2.47	2.66	2.99	3.69
x2 = 0.9011	3.76	4.25	4.87	6.01	7.16
x2 = 0.9535	6.1	7.22	8.46	9.89	11.6

O=C(O)C1CC(O)CN1 (stereo not drawn) + O + CC#N
solubility (g/100 g solution)
Details	x2 = 0.1	x2 = 0.2	x2 = 0.3	x2 = 0.4	x2 = 0.5	x2 = 0.6	x2 = 0.7	x2 = 0.8	x2 = 0.9
283.15 K	0.0362	0.0575	0.0864	0.185	–	0.635	1.45	3.22	9.59
293.15 K	0.0605	0.101	0.188	0.517	1.13	1.82	2.8	4.82	12.7
303.15 K	0.0971	0.136	0.287	0.813	1.6	2.88	4.48	7.02	15.9
313.15 K	0.128	0.203	0.398	1.08	2.25	3.66	6.08	11.3	21.4
323.15 K	0.187	0.327	0.778	1.71	3.12	5.6	10.2	16.7	24.8

NCCS(=O)(=O)O + O + CC(O)CO
solubility (g/100 g solution)
Details	298.15 K	303.15 K	308.15 K	313.15 K	318.15 K
x2 = 0.8085	0.283	0.373	0.413	0.484	0.694
x2 = 0.8636	0.605	0.646	0.75	0.914	1.26
x2 = 0.9079	0.929	1	1.36	1.64	2.12
x2 = 0.9441	1.72	2.03	2.51	3.03	3.67
x2 = 0.9744	3.42	4.2	5.01	5.6	6.88

NC(Cc1c[nH]c2ccccc12)C(=O)O (stereo not drawn) + O + CO
solubility (g/100 g solution)
Details	288.15 K	293.15 K	298.15 K	303.15 K	308.15 K
x2 = 0.1908	0.556	0.608	0.684	0.776	0.875
x2 = 0.3955	0.677	0.741	0.831	0.94	1.06
x2 = 0.595	0.827	0.902	1.01	1.14	1.28
x2 = 0.7962	1.02	1.11	1.23	1.38	1.56

NCCS(=O)(=O)O + O + OCCO
solubility (g/100 g solution)
Details	298.15 K	303.15 K	308.15 K	313.15 K	318.15 K
x2 = 0.775	1.2	1.44	1.68	2.16	2.27
x2 = 0.8378	1.63	1.92	2.28	2.83	3.17
x2 = 0.8893	2.24	2.94	3.18	3.64	4.08
x2 = 0.9323	3.39	4.12	4.67	5.48	6.21
x2 = 0.9688	5.08	6.22	7.45	8.66	10.1
